Laboratory results reported in PubChem BioAssay (NCI).
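1) Cells in 96-well plates. 2) Compound, 48 h, 5 concentrations. 3) Linear interpolation between surrounding doses. 4) Unreached endpoint = highest concentration. At the TGI there is no net growth.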

What was measured:
Experiment in all cases: NCI tumour cell line growth inhibition, 48 h
786-0 renal = tested on: 786-0 renal
A498 renal = tested on: A498 renal
A549 NSCLC = tested on: A549 NSCLC
ACHN renal = tested on: ACHN renal
BT-549 breast = tested on: BT-549 breast
CAKI-1 renal = tested on: CAKI-1 renal
CCRF-CEM leukemia = tested on: CCRF-CEM leukemia
COLO 205 colon = tested on: COLO 205 colon
DU-145 prostate = tested on: DU-145 prostate
EKVX NSCLC = tested on: EKVX NSCLC
HCC-2998 colon = tested on: HCC-2998 colon
HCT-116 colon = tested on: HCT-116 colon
HCT-15 colon = tested on: HCT-15 colon
HL-60(TB) leukemia = tested on: HL-60(TB) leukemia
HOP-62 NSCLC = tested on: HOP-62 NSCLC
HOP-92 NSCLC = tested on: HOP-92 NSCLC
HS 578T breast = tested on: HS 578T breast
HT29 colon = tested on: HT29 colon
IGROV1 ovarian = tested on: IGROV1 ovarian
K-562 leukemia = tested on: K-562 leukemia
KM12 colon = tested on: KM12 colon
LOX IMVI melanoma = tested on: LOX IMVI melanoma
M14 melanoma = tested on: M14 melanoma
MALME-3M melanoma = tested on: MALME-3M melanoma
MCF7 breast = tested on: MCF7 breast
MDA-MB-231 breast = tested on: MDA-MB-231 breast
MDA-MB-435 = tested on: MDA-MB-435
MDA-N = tested on: MDA-N
MOLT-4 leukemia = tested on: MOLT-4 leukemia
NCI-H226 lung = tested on: NCI-H226 lung
NCI-H23 lung = tested on: NCI-H23 lung
NCI-H460 lung = tested on: NCI-H460 lung
NCI-H522 lung = tested on: NCI-H522 lung
NCI/ADR-RES ovarian = tested on: NCI/ADR-RES ovarian
OVCAR-3 ovarian = tested on: OVCAR-3 ovarian
OVCAR-4 ovarian = tested on: OVCAR-4 ovarian
OVCAR-5 ovarian = tested on: OVCAR-5 ovarian
OVCAR-8 ovarian = tested on: OVCAR-8 ovarian
PC-3 prostate = tested on: PC-3 prostate
RPMI-8226 leukemia = tested on: RPMI-8226 leukemia
RXF 393 renal = tested on: RXF 393 renal
SF-268 CNS = tested on: SF-268 CNS
SF-295 CNS = tested on: SF-295 CNS
SF-539 CNS = tested on: SF-539 CNS
SK-MEL-2 melanoma = tested on: SK-MEL-2 melanoma
SK-MEL-28 melanoma = tested on: SK-MEL-28 melanoma
SK-MEL-5 melanoma = tested on: SK-MEL-5 melanoma
SK-OV-3 ovarian = tested on: SK-OV-3 ovarian
SN12C renal = tested on: SN12C renal
SNB-19 CNS = tested on: SNB-19 CNS
SNB-75 CNS = tested on: SNB-75 CNS
SR leukemia = tested on: SR leukemia
SW-620 colon = tested on: SW-620 colon
T-47D breast = tested on: T-47D breast
TK-10 renal = tested on: TK-10 renal
U251 CNS = tested on: U251 CNS
UACC-257 melanoma = tested on: UACC-257 melanoma
UACC-62 melanoma = tested on: UACC-62 melanoma
UO-31 renal = tested on: UO-31 renal

## N=C(N)SCc1ccc(Cl)cc1Cl (tested in a mixture with another compound)
786-0 renal
  TGI: 26.9 µM
A498 renal
  TGI: 27.5 µM
A549 NSCLC
  TGI: > 69.6 µM
ACHN renal
  TGI: 23.1 µM
BT-549 breast
  TGI: 36 µM
CAKI-1 renal
  TGI: 24.2 µM
CCRF-CEM leukemia
  TGI: 15.5 µM
COLO 205 colon
  TGI: 39.6 µM
DU-145 prostate
  TGI: 29.8 µM
EKVX NSCLC
  TGI: 37.2 µM
HCC-2998 colon
  TGI: 21.5 µM
HCT-116 colon
  TGI: 25 µM
HCT-15 colon
  TGI: 35.1 µM
HL-60(TB) leukemia
  TGI: 22.4 µM
HOP-62 NSCLC
  TGI: 30.2 µM
HOP-92 NSCLC
  TGI: 34.6 µM
HS 578T breast
  TGI: 45.2 µM
HT29 colon
  TGI: 29.2 µM
IGROV1 ovarian
  TGI: 42.9 µM
K-562 leukemia
  TGI: 25.5 µM
KM12 colon
  TGI: 28.2 µM
LOX IMVI melanoma
  TGI: 38.8 µM
M14 melanoma
  TGI: 26.9 µM
MALME-3M melanoma
  TGI: 34.2 µM
MCF7 breast
  TGI: 28.5 µM
MDA-MB-231 breast
  TGI: 25 µM
MDA-MB-435
  TGI: 18.3 µM
MDA-N
  TGI: 21.6 µM
MOLT-4 leukemia
  TGI: 35.4 µM
NCI-H226 lung
  TGI: 40.9 µM
NCI-H23 lung
  TGI: 32.4 µM
NCI-H460 lung
  TGI: 24.2 µM
NCI-H522 lung
  TGI: 30.8 µM
NCI/ADR-RES ovarian
  TGI: 73.9 µM
OVCAR-3 ovarian
  TGI: 28.1 µM
OVCAR-4 ovarian
  TGI: 38.8 µM
OVCAR-5 ovarian
  TGI: 35.7 µM
OVCAR-8 ovarian
  TGI: > 100 µM
PC-3 prostate
  TGI: 24.6 µM
RPMI-8226 leukemia
  TGI: 12.7 µM
RXF 393 renal
  TGI: 27.9 µM
SF-268 CNS
  TGI: 40 µM
SF-295 CNS
  TGI: 31.3 µM
SF-539 CNS
  TGI: 31.9 µM
SK-MEL-2 melanoma
  TGI: 27.5 µM
SK-MEL-28 melanoma
  TGI: 45.3 µM
SK-MEL-5 melanoma
  TGI: 29.2 µM
SK-OV-3 ovarian
  TGI: 40.2 µM
SN12C renal
  TGI: 27 µM
SNB-19 CNS
  TGI: 47.6 µM
SNB-75 CNS
  TGI: 30.9 µM
SR leukemia
  TGI: 22.8 µM
SW-620 colon
  TGI: 37.6 µM
T-47D breast
  TGI: 39 µM
TK-10 renal
  TGI: 18.8 µM
U251 CNS
  TGI: 28.5 µM
UACC-257 melanoma
  TGI: 20.7 µM
UACC-62 melanoma
  TGI: 28.3 µM
UO-31 renal
  TGI: 23.1 µM
